≈ marks a conversion by molar mass, not a printed value.
How the values were obtained:
[1] = target: aminoacyl-tRNA synthetases (aaRS); test: aaRS charging and trichloroacetic acid precipitation assay (IC50), Sa enzyme; assay type: biochemical; conditions: aaRS from Sa; 20 min preincubation at 25 C
Procedure: (§1) IC50 determinations for the aminoacyl-tRNA synthetases (aaRS) isolated from pathogen or HeLa cells were carried out using a modification of the aaRS charging and trichloroacetic acid precipitation assay described previously (see examples: D. Kern et. al., Biochemie, 61, 1257-1272 (1979) and J. Gilbart et. al. Antimicrobial Agents and Chemotherapy, 37(1), 32-38 (1993)). The aaRS enzymes were prepared via standard cloning and expression methods and partially purified or partially purified from pathogen and HeLa cell extracts. The activity of each aaRS enzyme was standardized as trichloroacetic acid precipitable counts (cpm) obtained at 10 minutes reaction time at Km concentrations of substrates. For practical purposes, the minimal acceptable value is approximately 2000 cpm per 10 minute reaction.
(§2) Preincubations for IC50 determinations were initiated by incubating partially purified aaRS extracts in 50 mM HEPES (pH 7.5), 0.1 mM EDTA, 0.05 mg/ml bovine serum albumin, 10 mM dithiothreitol and 2.5% dimethyl sulfoxide with and without test compound (e.g. compound of the invention (preferably a compound of Formula I)) in a final volume of 20 microliters in a microtiter plate for 20 minutes at 25 C. Test compounds were typically present as serial dilutions in concentration ranges of 0.35 nM to 35 μM. Test compound solutions were prepared by dissolving test compound in 100% dimethyl sulfoxide and diluting to the final concentration with 50 mM HEPES, pH 7.5. IC50 determinations were typically performed in duplicate with each experiment containing 4-8 concentrations of inhibitor along with two no inhibitor controls.
(§3) IC50 incubations were initiated by supplementing the preincubation mixture to a final assay concentration of 10 mM MgCl2, 30 mM KCl, 10 mM KF, 50 mM HEPES (pH 7.5), 20 μM-500 mM ATP, 2-20 μM [^3H] amino acid, and 90-180 μM crude tRNA in a final volume of 35 microliters. The reaction was incubated at 25° C. for 5-20 minutes. At specified time points a 15 microliter aliquot was removed and added to a well of a Millipore filtration plate (Multiscreen-FB, MAFB NOB 10) containing 100 microliters of cold 5% (wt/vol) trichloroacetic acid. Trichloroacetic acid precipitable material was collected by filtration on Millipore Multiscreen filtration station, washed twice with cold 5% trichloroacetic acid, twice with water, and dried. Plates were typically allowed to air dry for several hours or they were baked at 50° C. in a vacuum oven for 30 minutes. The radioactivity on the dried plates was quantitated by the addition of Packard Microscint-20 to the wells and counting with a Packard TopCount scintillation counter.
(§4) Inhibitor activity was typically reported as a percentage of the control aaRS activity. The IC50 value was determined by plotting per cent activity versus compound concentration in the assay and identifying the concentration at which 50% of the activity was remaining.

[2] = target: aminoacyl-tRNA synthetases (aaRS); test: aaRS charging and trichloroacetic acid precipitation assay (IC50), Ef enzyme; assay type: biochemical; conditions: aaRS from Ef; 20 min preincubation at 25 C
Procedure: as §1, §2, §3, §4

Sa = test: Whole cell antimicrobial screen (MIC), Sa; assay type: cell-based; conditions: overnight incubation, 2-fold dilutions, read-out: MIC (μg/mL) Sa
Procedure: (§5) Compounds were tested for antimicrobial activity against a panel of organisms according to standard procedures described by the National Committee for Clinical Laboratory Standards (NCCLS document M7-A3, Vol. 13, No. 25, 1993/NCCLS document M27-P, Vol. 12, No. 25, 1992). Compounds were dissolved in 100% DMSO and were diluted to the final reaction concentration (0.1 μg/ml-500 μg/ml) in microbial growth media. In all cases the final concentration of DMSO incubated with cells is less than or equal to 1%. For minimum inhibitory concentration (MIC) calculations, 2-fold dilutions of compounds were added to wells of a microtiter plate containing 1×10^5 bacteria or fungal cells in a final volume of 200 lambda of an appropriate media (Mueller-Hinton Broth; Haemophilus Test Media; Mueller-Hinton Broth+5% Sheep Blood; or […]). Plates were incubated overnight at an appropriate temperature (30° C.-37° C.) and optical densities (measure of cell growth) were measured using a commercial plate reader. The MIC value is defined as the lowest compound concentration inhibiting growth of the test organism.

Efs = test: Whole cell antimicrobial screen (MIC), Efs; assay type: cell-based; conditions: overnight incubation, 2-fold dilutions, read-out: MIC (μg/mL) Efs
Procedure: as §5

Efm = test: Whole cell antimicrobial screen (MIC), Efm; assay type: cell-based; conditions: overnight incubation, 2-fold dilutions, read-out: MIC (μg/mL) Efm
Procedure: as §5

Structure (SMILES) | IC50 [1] [nM] | IC50 [2] [nM] | MIC (Sa) [µg/mL] | MIC (Efs) [µg/mL] | MIC (Efm) [µg/mL]
CS(=O)(=O)NC(=O)c1ccc(OCc2nc3ccccc3[nH]2)c(OCc2ccc(Cl)cc2Cl)c1 [130,971] | < 500 | < 500 | < 100 | 100 (≈ 192 µM) | 100 (≈ 192 µM)
O=C(O)Cc1ccc(OCc2nc3ccccc3[nH]2)c(OCc2ccc(Cl)cc2Cl)c1 [130,976] | < 500 | < 500 | < 10 | < 10 | < 10

Continued, values first:

IC50 [1] [nM] | IC50 [2] [nM] | MIC (Sa) [µg/mL] | MIC (Efs) [µg/mL] | MIC (Efm) [µg/mL] | Structure (SMILES)
< 500 | < 500 | > 100 | > 100 | > 100 | Clc1ccc(COc2ccccc2OCc2nc3ccccc3[nH]2)c(Cl)c1 [126,419]
< 500 | < 500 | > 100 | > 100 | > 100 | O=C(NC(CO)C(=O)O)c1ccc(OCc2ccc(Cl)cc2Cl)c(OCc2nc3ccccc3[nH]2)c1 (stereo not shown) [130,968]
< 500 | < 500 | > 100 | < 100 | 100 (≈ 189 µM) | O=C(NC(CO)C(=O)O)c1ccc(OCc2nc3ccccc3[nH]2)c(OCc2ccc(Cl)cc2Cl)c1 (stereo not shown) [130,970]

From US6348482B1, “Catechols as antimicrobial agents” (Merck & Co., Inc., priority 1999, dated 2002)
